From PubChem BioAssay (NCI)
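96-well plates; 48 h exposure; 5 concentrations. Endpoints by linear interpolation between flanking doses. Not reached: highest tested concentration assigned. At the TGI there is no net growth.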

These compounds were tested on HS 578T breast (assay: DTP human tumour cell line panel, 48 h).

Row | Compound | TGI
1 | CCOc1ccc(NC(=O)C(=O)Nn2c(N)nnc2N)cc1 | > 100 µM
2 | O=C1OC([C@H](O)c2cccnc2)c2ccccc21 (some centres not stated) | > 10 µM
3 | CC(C)(C)O/N=C/c1cc(NC(=S)c2ccsc2)ccc1Cl | 57 µM
4 | CC(=O)/C(=C\I)c1ccccc1 | 40.5 µM
5 | C=CCN1CCC(c2cc(C(=O)OCC)[nH]c2-c2cc(C)no2)C1=O (configuration not stated) | > 100 µM
6 | CC(=O)N1C(Nc2nccs2)CCN1c1ccccc1 (configuration not stated) | > 10 µM
7 | Cc1cc(NS(=O)(=O)c2ccc(N=[N+]([O-])c3ccc(S(=O)(=O)Nc4cc(C)on4)cc3)cc2)no1 | > 100 µM
8 | Cc1ccc(S(=O)(=O)N/N=C2/CCC3(O)CC2(C)CCC2[C@H]3CC2(C)C)cc1 (some centres not stated) | > 100 µM
9 | CCCCCCCCCCCCOCC1(COCCCCCCCCCCCC)COC(c2ccc(N)cc2)OC1 | > 100 µM
10 | CC(C)OP(=O)(OC(C)C)C(C)(C)O | > 100 µM
11 | Cc1cn(C2CC(N=[N+]=[N-])C(COP(=O)(O)OCC3OC(n4cc(F)c(=O)[nH]c4=O)CC3O)O2)c(=O)[nH]c1=O (configuration not stated) | > 100 µM
12 | NC(=O)[N+](=CC(=S)Nc1ccccc1Cl)C(N)=O | > 100 µM

What follows are compounds tested on MALME-3M melanoma (assay: DTP human tumour cell line panel, 48 h).

Row | Compound | TGI
13 | CCCCCCCCCCCCCCCCNC(=O)/C(=C\c1ccc(Cl)c(Cl)c1)NC(=O)c1ccccc1 | > 100 µM
14 | O=C(Nc1ccccc1)OCCN=C1c2ccccc2CCc2ccccc21 | 57.9 µM
15 | COc1cc2cc(C(=O)N3CC(CCl)c4ccc([N+](C)(C)Cc5ccccc5[N+](=O)[O-])cc43)[nH]c2c(OC)c1OC (configuration not stated) | 3.59 µM
16 | CC(C)[C@H]1NC(=O)[C@H]2N=C(S[C@H]2C)[C@@H]2CCCN2C(=O)[C@H](Cc2ccccc2)NC(=O)[C@@H]2CSC(=N2)[C@@H](Cc2ccccc2)NC(=O)[C@@H]2CSC1=N2 | > 50 µM
17 | COC(=O)/C=C/[C@@H]1[C@H](C)N1S(=O)(=O)c1ccc(C)cc1 (some centres not stated) | > 100 µM
18 | COc1cc([C@@H]2c3cc4c(cc3[C@@H](Nc3ccc(Cl)cc3C(=O)c3ccccc3)[C@H]3COC(=O)[C@H]23)OCO4)cc(OC)c1OC | > 100 µM
19 | Cc1nn(C(=O)c2ccncc2)c2c1C(c1ccccc1[N+](=O)[O-])SC(N)=N2 (configuration not stated) | > 10 µM
20 | Cn1nnc2c3c(N(CCO)CCO)ccnc3ccc21 | > 100 µM
21 | CCCc1nc2c(n1CC)C(=O)c1ccccc1C2=O | 60.5 µM
22 | C1CCCN(NC2=NCCO2)CC1 | > 100 µM
23 | O=C1NCN(c2ccccc2)C12CCN(CC1COc3ccccc3O1)CC2 (configuration not stated) | > 100 µM
24 | CCOc1ccc(NC(=O)C(=O)Nn2c(N)nnc2N)cc1 | > 100 µM
25 | CC(C)(C)O/N=C/c1cc(NC(=S)c2ccsc2)ccc1Cl | 31.5 µM
26 | CC(=O)/C(=C\I)c1ccccc1 | 3.33 µM
27 | C=CCN1CCC(c2cc(C(=O)OCC)[nH]c2-c2cc(C)no2)C1=O (configuration not stated) | > 100 µM
28 | CC(=O)N1C(Nc2nccs2)CCN1c1ccccc1 (configuration not stated) | > 10 µM
29 | Cc1cc(NS(=O)(=O)c2ccc(N=[N+]([O-])c3ccc(S(=O)(=O)Nc4cc(C)on4)cc3)cc2)no1 | > 100 µM
30 | Cc1ccc(S(=O)(=O)N/N=C2/CCC3(O)CC2(C)CCC2[C@H]3CC2(C)C)cc1 (some centres not stated) | > 100 µM
31 | CCCCCCCCCCCCOCC1(COCCCCCCCCCCCC)COC(c2ccc(N)cc2)OC1 | > 100 µM
32 | CC(C)OP(=O)(OC(C)C)C(C)(C)O | > 100 µM
33 | Cc1cn(C2CC(N=[N+]=[N-])C(COP(=O)(O)OCC3OC(n4cc(F)c(=O)[nH]c4=O)CC3O)O2)c(=O)[nH]c1=O (configuration not stated) | > 20.2 µM

These compounds were tested on HT29 colon (assay: DTP human tumour cell line panel, 48 h).

Row | Compound | TGI
34 | CCCCCCCCCCCCCCCCNC(=O)/C(=C\c1ccc(Cl)c(Cl)c1)NC(=O)c1ccccc1 | > 100 µM
35 | O=C(Nc1ccccc1)OCCN=C1c2ccccc2CCc2ccccc21 | 37 µM
36 | COc1cc2cc(C(=O)N3CC(CCl)c4ccc([N+](C)(C)Cc5ccccc5[N+](=O)[O-])cc43)[nH]c2c(OC)c1OC (configuration not stated) | > 21.8 µM
37 | CC(C)[C@H]1NC(=O)[C@H]2N=C(S[C@H]2C)[C@@H]2CCCN2C(=O)[C@H](Cc2ccccc2)NC(=O)[C@@H]2CSC(=N2)[C@@H](Cc2ccccc2)NC(=O)[C@@H]2CSC1=N2 | > 50 µM
38 | COC(=O)/C=C/[C@@H]1[C@H](C)N1S(=O)(=O)c1ccc(C)cc1 (some centres not stated) | > 100 µM
39 | O=C1Oc2ccccc2C(=O)/C1=C/N1C(=O)CNC1=S | > 100 µM
40 | Cc1nn(C(=O)c2ccncc2)c2c1C(c1ccccc1[N+](=O)[O-])SC(N)=N2 (configuration not stated) | > 10 µM
41 | Cn1nnc2c3c(N(CCO)CCO)ccnc3ccc21 | > 100 µM
42 | Cc1ccc(S(=O)(=O)N2CCSCCSCCSCCN(S(=O)(=O)c3ccc(C)cc3)CC2)cc1 | > 100 µM
43 | CCCc1nc2c(n1CC)C(=O)c1ccccc1C2=O | 53.3 µM
44 | C1CCCN(NC2=NCCO2)CC1 | > 100 µM
45 | O=C1NCN(c2ccccc2)C12CCN(CC1COc3ccccc3O1)CC2 (configuration not stated) | > 100 µM
46 | CCOc1ccc(NC(=O)C(=O)Nn2c(N)nnc2N)cc1 | > 100 µM
47 | O=C1OC([C@H](O)c2cccnc2)c2ccccc21 (some centres not stated) | > 10 µM
48 | CC(C)(C)O/N=C/c1cc(NC(=S)c2ccsc2)ccc1Cl | 26.1 µM
49 | CC(=O)/C(=C\I)c1ccccc1 | 2.29 µM
50 | C=CCN1CCC(c2cc(C(=O)OCC)[nH]c2-c2cc(C)no2)C1=O (configuration not stated) | > 100 µM
51 | CC(=O)N1C(Nc2nccs2)CCN1c1ccccc1 (configuration not stated) | > 10 µM
52 | Cc1cc(NS(=O)(=O)c2ccc(N=[N+]([O-])c3ccc(S(=O)(=O)Nc4cc(C)on4)cc3)cc2)no1 | > 100 µM
53 | Cc1ccc(S(=O)(=O)N/N=C2/CCC3(O)CC2(C)CCC2[C@H]3CC2(C)C)cc1 (some centres not stated) | 99.5 µM
54 | CCCCCCCCCCCCOCC1(COCCCCCCCCCCCC)COC(c2ccc(N)cc2)OC1 | > 100 µM
55 | CC(C)OP(=O)(OC(C)C)C(C)(C)O | > 100 µM
56 | Cc1cn(C2CC(N=[N+]=[N-])C(COP(=O)(O)OCC3OC(n4cc(F)c(=O)[nH]c4=O)CC3O)O2)c(=O)[nH]c1=O (configuration not stated) | > 100 µM
57 | NC(=O)[N+](=CC(=S)Nc1ccccc1Cl)C(N)=O | > 100 µM
